Holding throughout (assay type): cell-based
In assay [1] the target is hKv1.3 (Homo sapiens, UniProt P22001). In words: cell-based. As to conditions: Kv1.3 (IWQ) IC50 (nM, Avg).
Assay [2] deals with IL-2 secretion from T cells in human whole blood. The settings on record: read-out: WB (IL-2) IC50 (nM, Avg).
Assay [3] concerns IFN-g secretion from T cells in human whole blood.
Where [4] appears, read: read-out: WB (IFNg) IC50 (nM, Avg).
Where [5] appears, read: read-out: WB (IFNg) IC5- (nM, Avg).

The results in this text go back to patent US20120121591A1 (priority 2009, published 2012).

The structures appear in SMILES notation. Like-named read-outs stand apart in the source and are kept apart here.

Sequence of hKv1.3 (P22001 whole entry): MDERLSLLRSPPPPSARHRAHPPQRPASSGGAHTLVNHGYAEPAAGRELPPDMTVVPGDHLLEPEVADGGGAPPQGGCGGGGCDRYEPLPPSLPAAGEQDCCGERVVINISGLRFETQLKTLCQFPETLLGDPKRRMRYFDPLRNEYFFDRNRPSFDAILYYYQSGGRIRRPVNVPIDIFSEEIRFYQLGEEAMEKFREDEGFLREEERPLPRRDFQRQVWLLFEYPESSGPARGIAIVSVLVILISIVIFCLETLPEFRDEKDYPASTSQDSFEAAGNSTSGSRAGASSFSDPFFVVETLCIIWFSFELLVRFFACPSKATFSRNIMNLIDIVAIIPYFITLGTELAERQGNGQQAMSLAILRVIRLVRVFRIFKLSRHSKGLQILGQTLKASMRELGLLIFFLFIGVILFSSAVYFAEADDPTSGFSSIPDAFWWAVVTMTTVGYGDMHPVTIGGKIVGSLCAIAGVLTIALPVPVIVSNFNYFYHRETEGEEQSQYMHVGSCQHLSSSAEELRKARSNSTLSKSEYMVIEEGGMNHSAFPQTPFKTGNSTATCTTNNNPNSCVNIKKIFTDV

Take `CC[C@H](C)[C@@H]1NC(=O)[C@H]([C@@H](C)O)NC(=O)[C@H](CC(=O)O)NC(=O)[C@H](CCC(=O)O)NC(=O)[C@@H](NC(=O)[C@H](CO)NC(=O)[C@@H](N)CCCNC(=N)N)CSSC[C@@H](C(N)=O)NC(=O)[C@H]([C@@H](C)O)NC(=O)CNC(=O)[C@@H]2CSSC[C@@H]3NC(=O)[C@H](CCCCN)NC(=O)[C@H](Cc4ccccc4)NC(=O)[C@H](C)NC(=O)[C@H]([C@@H](C)O)NC(=O)[C@H](CSSC[C@H](NC(=O)[C@H](Cc4ccccc4)NC(=O)[C@H](Cc4cccc5ccccc45)NC(=O)[C@H](CC(C)C)NC(=O)[C@H](CCCNC(=N)N)NC(=O)[C@H](Cc4ccc(O)cc4)NC(=O)[C@H](CCCCN)NC(=O)[C@H](CCSC)NC(=O)[C@H](CO)NC(=O)[C@H](Cc4c[nH]cn4)NC(=O)[C@H](CCCCN)NC3=O)C(=O)N[C@@H](CCCCN)C(=O)N[C@@H](CCCNC(=N)N)C(=O)N[C@@H]([C@@H](C)O)C(=O)N2)NC(=O)[C@H](CCCNC(=N)N)NC(=O)[C@H](CO)NC(=O)[C@H](CCCCN)NC(=O)[C@@H]2CCCN2C1=O` [[Glu4; Lys16,29;1-Na126;Arg30]ShK-amide]: the IC50 was found to be 0.384 nM in assay [1], 0.712 nM in assay [2] and 0.598 nM in assay [3] (setting [4]).
The matching figures for `CC[C@H](C)[C@@H]1NC(=O)[C@H]([C@@H](C)O)NC(=O)[C@H](CC(=O)O)NC(=O)[C@H](CCC(=O)O)NC(=O)[C@@H](NC(=O)[C@H](CO)NC(=O)[C@@H](N)CCCNC(=N)N)CSSC[C@@H](C(N)=O)NC(=O)[C@H]([C@@H](C)O)NC(=O)CNC(=O)[C@@H]2CSSC[C@@H]3NC(=O)[C@H](CCCCN)NC(=O)[C@H](Cc4ccccc4)NC(=O)[C@H](C)NC(=O)[C@H]([C@@H](C)O)NC(=O)[C@H](CSSC[C@H](NC(=O)[C@H](Cc4ccccc4)NC(=O)[C@H](CO)NC(=O)[C@H](CC(C)C)NC(=O)[C@H](CCCNC(=N)N)NC(=O)[C@H](Cc4ccc(O)cc4)NC(=O)[C@H](CCCCN)NC(=O)[C@H](CCSC)NC(=O)[C@H](CO)NC(=O)[C@H](Cc4c[nH]cn4)NC(=O)[C@H](CCCCN)NC3=O)C(=O)N[C@@H](CCCCN)C(=O)N[C@@H](CCCNC(=N)N)C(=O)N[C@@H]([C@@H](C)O)C(=O)N2)NC(=O)[C@H](CCCNC(=N)N)NC(=O)[C@H](CO)NC(=O)[C@H](CCCCN)NC(=O)[C@@H]2CCCN2C1=O` [[Glu4; Lys16,29;Arg30]ShK-amide]: 0.104 nM, 0.067 nM and 0.28 nM.
The matching figures for `CC[C@H](C)[C@@H]1NC(=O)[C@H]([C@@H](C)O)NC(=O)[C@H](CC(=O)O)NC(=O)[C@H](CCC(=O)O)NC(=O)[C@@H](NC(=O)[C@H](CO)NC(=O)[C@@H](N)CCCNC(=N)N)CSSC[C@@H](C(N)=O)NC(=O)[C@H]([C@@H](C)O)NC(=O)CNC(=O)[C@@H]2CSSC[C@@H]3NC(=O)[C@H](CCCCN)NC(=O)[C@H](Cc4ccccc4)NC(=O)[C@H](C)NC(=O)[C@H]([C@@H](C)O)NC(=O)[C@H](CSSC[C@H](NC(=O)[C@H](Cc4ccccc4)NC(=O)[C@H](CO)NC(=O)[C@H](CC(C)C)NC(=O)[C@H](CCCNC(=N)N)NC(=O)[C@H](Cc4ccc(O)cc4)NC(=O)[C@H](CCCCN)NC(=O)[C@H](CCSC)NC(=O)[C@H](CO)NC(=O)[C@H](Cc4c[nH]cn4)NC(=O)[C@H](CCCNC(=N)N)NC3=O)C(=O)N[C@@H](CCCCN)C(=O)N[C@@H](CCCNC(=N)N)C(=O)N[C@@H]([C@@H](C)O)C(=O)N2)NC(=O)[C@H](CCCNC(=N)N)NC(=O)[C@H](CO)NC(=O)[C@H](CCCCN)NC(=O)[C@@H]2CCCN2C1=O` [[Glu4; Lys16, 29;Arg18, 30]ShK-amide]: 0.192 nM, 0.203 nM and 0.353 nM.
Consider `CC[C@H](C)[C@@H]1NC(=O)[C@H]([C@@H](C)O)NC(=O)[C@H](CC(=O)O)NC(=O)[C@H](CCC(=O)O)NC(=O)[C@@H](NC(=O)[C@H](CO)NC(=O)[C@@H](N)CCCNC(=N)N)CSSC[C@@H](C(=O)O)NC(=O)[C@H]([C@@H](C)O)NC(=O)CNC(=O)[C@@H]2CSSC[C@@H]3NC(=O)[C@H](CCC(N)=O)NC(=O)[C@H](Cc4ccccc4)NC(=O)[C@H](C)NC(=O)[C@H]([C@@H](C)O)NC(=O)[C@H](CSSC[C@H](NC(=O)[C@H](Cc4ccccc4)NC(=O)[C@H](CO)NC(=O)[C@H](CC(C)C)NC(=O)[C@H](CCCNC(=N)N)NC(=O)[C@H](Cc4ccc(O)cc4)NC(=O)[C@H](CCCCN)NC(=O)[C@H](CCSC)NC(=O)[C@H](CO)NC(=O)[C@H](Cc4c[nH]cn4)NC(=O)[C@H](CCCCN)NC3=O)C(=O)N[C@@H](CCCNC(=N)N)C(=O)N[C@@H](CCCCN)C(=O)N[C@@H]([C@@H](C)O)C(=O)N2)NC(=O)[C@H](CCCNC(=N)N)NC(=O)[C@H](CO)NC(=O)[C@H](CCCCN)NC(=O)[C@@H]2CCCN2C1=O` [[Glu4]ShK], for which the IC50 is 0.07 nM in assay [1], 0.031 nM in assay [2] and 0.049 nM in assay [3] (setting [5]).
The matching figures for `CC[C@H](C)[C@@H]1NC(=O)[C@@H](NC(=O)[C@H](CO)NC(=O)[C@@H](N)CCCNC(=N)N)CSSC[C@@H](C(=O)O)NC(=O)[C@H]([C@@H](C)O)NC(=O)CNC(=O)[C@@H]2CSSC[C@@H]3NC(=O)[C@H](CCC(N)=O)NC(=O)[C@H](Cc4ccccc4)NC(=O)[C@H](C)NC(=O)[C@H]([C@@H](C)O)NC(=O)[C@H](CSSC[C@H](NC(=O)[C@H](Cc4ccccc4)NC(=O)[C@H](CO)NC(=O)[C@H](CC(C)C)NC(=O)[C@H](CCCNC(=N)N)NC(=O)[C@H](Cc4ccc(O)cc4)NC(=O)[C@H](CCCCN)NC(=O)[C@H](CCSC)NC(=O)[C@H](CO)NC(=O)[C@H](Cc4c[nH]cn4)NC(=O)[C@H](CCCCN)NC3=O)C(=O)N[C@@H](CCCNC(=N)N)C(=O)N[C@@H](CCCCN)C(=O)N[C@@H]([C@@H](C)O)C(=O)N2)NC(=O)[C@H](CCCNC(=N)N)NC(=O)[C@H](CO)NC(=O)[C@H](CCCCN)NC(=O)[C@@H]2CCCN2C(=O)[C@H]([C@@H](C)CC)NC(=O)[C@H]([C@@H](C)O)NC(=O)[C@H](CCC(=O)O)NC1=O` [[Glu5]ShK]: 3.3 nM, 16.9 nM and 24.6 nM.
The corresponding values for `CC[C@H](C)[C@@H]1NC(=O)[C@@H](NC(=O)[C@H](CO)NC(=O)[C@@H](N)CCCNC(=N)N)CSSC[C@@H](C(=O)O)NC(=O)[C@H]([C@@H](C)O)NC(=O)CNC(=O)[C@@H]2CSSC[C@@H]3NC(=O)[C@H](CCC(N)=O)NC(=O)[C@H](Cc4ccccc4)NC(=O)[C@H](C)NC(=O)[C@H]([C@@H](C)O)NC(=O)[C@H](CSSC[C@H](NC(=O)[C@H](Cc4ccccc4)NC(=O)[C@H](CO)NC(=O)[C@H](CC(C)C)NC(=O)[C@H](CCCNC(=N)N)NC(=O)[C@H](Cc4ccc(O)cc4)NC(=O)[C@H](CCCCN)NC(=O)[C@H](CCSC)NC(=O)[C@H](CO)NC(=O)[C@H](Cc4c[nH]cn4)NC(=O)[C@H](CCCCN)NC3=O)C(=O)N[C@@H](CCCNC(=N)N)C(=O)N[C@@H](CCCCN)C(=O)N[C@@H]([C@@H](C)O)C(=O)N2)NC(=O)[C@H](CCCNC(=N)N)NC(=O)[C@H](CO)NC(=O)[C@H](CCCCN)NC(=O)[C@@H]2CCCN2C(=O)[C@H]([C@@H](C)CC)NC(=O)[C@H](CCC(=O)O)NC(=O)[C@H](CC(=O)O)NC1=O` [[Glu6]ShK] are 0.17 nM, 0.073 nM and 0.109 nM.
